Data published in patent US10537103B2, “Antibacterial composition containing an isomer mixture of monosaccharide alkyl monoacetals or monoethers” (TEREOS STARCH & SWEETENERS BELGIUM, priority 2014, dated 2020).
In brackets after ≈: the same amount, converted by molar mass. Read-outs that look alike come from different tables or passages of the source.

How the values were obtained:
[1] = Water solubility of test solutions; type: physicochemical; conditions: solutions diluted in water, 2.5% m ethanol; precipitates formed
Description: Tests have been conducted on Gram-positive bacteria with methyl glucopyranoside derivatives. […] After sterilization the solutions are diluted in water. […] Because precipitates formed in the solutions, the effect of these methyl glucopyranoside C10 and C12 acetals was not able to be evaluated. The results obtained for antimicrobial tests on the 3 bacterial strains L. monocytogenes (CIP 103575), E. faecalis (ATCC® 29212) and S. aureus (ATCC® […]) are summarized in Table 1.

[2] = test system: E. faecalis strains (ATCC 29212, 9901, 1801); assay: MIC on a wider panel of strains (Example 10), microdilution; type: cell-based; conditions: Enterococcus faecalis, ATCC29212
Description: The cultures studied, freshly isolated (after incubation on a blood agar at 37° C. for 18 h), are taken up in sterile water (10 mL) until obtaining a 0.5 McFarland (Mc) suspension i.e. 1 to 1 to 2×10^8 CFU (bacteria)/cm^3. The bacterial suspension was then diluted to obtain a final concentration of 1×10^6 CFU/cm^3. Each well contains an identical quantity of Mueller-Hinton medium (a rich medium for bacterial culture) and bacteria with final [concentration of] 0.5×10^6 CFU/cm^3. The test compounds of interest are solubilized in ethanol or DMSO at 25 mg/mL before being diluted to different concentrations two by two. On the multiwell plate, a first series has been planned comprising the culture medium without the test compound of interest. It corresponds to the growth control (control well). These controls serve as reference for comparing bacterial growth with that of the subsequent wells comprising different concentrations of the test compound of interest. The second series of wells comprises the mother solution for the test compound of interest for a concentration in the wells of 256 mg/L (7 mM). Each series of wells was diluted two by two until the last series for a final concentration of 0.25 mg/L (0.0007 mM). Each concentration is duplicated in the same plate. The plate is incubated for 18 h at 37° C. […] If there is antibacterial activity, the bacterial growth is inhibited, which means that no turbidity or bacterial residue is present. The minimum inhibitory concentrations (MIC) are tested on Gram-positive bacterial strains according to the recommendations of the “Clinical Laboratory Standards Institute” (Clinical-Laboratory-Standards-Institute, 6th ed. Approved standard M100-S17. CLSI, Wayne, Pa., 2007). The clinical strains have been isolated in the Hospice de Lyon. Enterococci: E. faecalis (ATCC® 29212™), clinical enterococci strains E. faecalis isolated from urines: strain 015206179901 (hereinafter 9901), strain 015205261801 (hereinafter 1801) The cultures studied, freshly isolated (after incubation on a blood agar at 37° C. for 18 h), are taken up in sterile water (10 mL) until obtaining a 0.5 McFarland (Mc) suspension i.e. At 10^8 CFU (bacteria)/cm^3. The bacterial suspension was then diluted to obtain a final concentration of 10^6 CFU/cm^3.

[3] = E. faecalis ATCC 29212, read-out: MIC Enterococcus ATCC 29212

water solubility [1] | MIC [2, 3] [mg/L] | MIC ([2]; E. faecalis clinical strain 015205261801, from urines, read-out: MIC Enterococcus 1801) [mg/L] | MIC ([2]; E. faecalis clinical strain 015206179901, from urines, read-out: MIC Enterococcus 9901) [mg/L] | Compound
low water solubility | 256 (≈ 710 µM) |  |  | CCCCCCCCCCCC1OCC2O[C@H](OC)C(O)C(O)[C@@H]2O1 (stereo partly drawn) [Compound 1e, Methyl 4,6-O-Dodecylidene α-D-glucopyranoside]
 | 64 (≈ 178 µM) | 8 (≈ 22.2 µM) | 32 (≈ 88.8 µM) | CCCCCCCCCCCC1OCC2O[C@@H](OC)C(O)C(O)[C@@H]2O1 (stereo partly drawn) [Compound 1f, Methyl 4,6-O-Dodecylidene β-D-glucopyranoside]
